# According to patent US12589087B2, “Enantiomer selective action on neurotransmission” (The Board of Trustees of the Leland Stanford Junior …, priority 2021, dated 2026):
# Read-outs that look alike come from different tables or passages of the source.
# How the values were obtained:
# [1] = Metabolism in synaptosomes (GABA shunt, glutamate-glutamine cycle); assay type: in vitro ADME; details: mouse, mouse cerebral synaptosomes; synaptosomes preincubated with 100 μM, normal KRP buffer, 37° C.; read-out: synaptosomal concentration, estimated half life
# Method: To each tube, a 5 μL aliquot of a test compound solution (final concentration 100 μM) in Buffer KRP or Buffer KRP alone were added. The samples were incubated for 15 min at 37° C., briefly chilled on ice, and then immediately centrifuged and washed twice by resuspension-centrifugation with Buffer S (0.5 mL). The pellets were then resuspended in Buffer KRP (500 μL). Samples were then immediately centrifuged or incubated for 5, 10, 15, 20, 25 or 30 min at 37° C. and then centrifuged and washed by resuspension-centrifugation with Buffer S (0.5 mL). Resulting pellets were resuspended in 170 μL of 0.1% aqueous formic acid, mixed with 330 μL of ACN.
# To each tube, 5 μL of 2MeGlu solution (final concentration 100 μM) in Buffer KRP or Buffer KRP alone were added. The samples were incubated for 15 min at 37° C., briefly chilled on ice, and then immediately centrifuged and washed twice by resuspension-centrifugation with Buffer S (0.5 mL). The pellets were then resuspended in Buffer KRP (200 μL). Samples were then kept on ice or incubated for 10, 20, 30, 40 or 50 min at 37° C. and then chilled on ice. Then all samples were centrifuged, 200 μL of supernatants were collected, and the pellets were suspended in 200 μL of 80% ACN. Supernatants and pellet suspensions were diluted with 250 μL of ACN and 50 μL of 10 μM d5-Glu in water as internal standard.
# [2] = test system: mouse hippocampal slice cultures; assay: Kainic acid neurodegeneration in hippocampal slice cultures (propidium iodide); assay type: cell-based
# Method: We employed a standard technique of ex vivo experimentation to determine the efficacy of 2MeGlu, 2MeGln, and 4APA to prevent neurodegeneration. Mouse hippocampal slice cultures were prepared and then exposed to one of the three test compounds at either 5 or 50 μM for one hour. Then media was changed to contain either 2 or 5 μM kanic acid (KA) for 24 hr. […] After 24, the amount of neurodegeneration was assayed with propidium iodide staining. Increasing the dose of KA led to greater neurodegeneration at 5 μM than at 2 μM.
# [3] = test system: mouse cerebral synaptosomes; assay: Synaptosomal neurotransmitter uptake assay; assay type: cell-based
# Method: To each tube, 5 μL of a test compound solution (final concentration 10 μM) in Buffer KRP or Buffer KRP alone were added. Samples were incubated at 4° C. or 37° C. for 1, 10, or 30 min and then immediately centrifuged and washed twice by resuspension-centrifugation with Buffer S (0.5 mL). Resulting pellets were resuspended in 170 μL of 0.1% aqueous formic acid and mixed with 330 μL of ACN.
# 96-well plate experiments: 250 μL aliquots of the synaptosome suspension were transferred to two 0.8-mL 96 well plates, one on ice (0° C. samples only) and one in a thermoblock (37° C. samples only), and equilibrated for 10 min. 5 μL of a test compound (0.5 mM; final concentration: 10 μM) in Buffer KRP or Buffer KRP blank were added 10, 20 or 30 min before the incubation termination. “0 min” samples were prepared by placing the test compound solution in a separate pre-chilled V-shape bottom 2-mL 96 well plate; at the end of incubation 200 μL aliquots of all samples were transferred to the 2-mL 96 well plate and centrifuged (2,500 g for 15 min at 4° C.) immediately. The resulting pellets were rinsed with Buffer KRP, followed by centrifugation, twice, then resuspended in 200 μL of 60% ACN containing 2.5 μM Glu-d5 as internal standard and stored at −80° C. until analysis.
# (§1) Synaptosome uptake and high potassium-induced release assays were performed as described in Example 1. Uptake assays used 250 μL aliquots of the synaptosome suspension transferred to a pre-chilled 0.8 mL 96 well plate. 5 μL of a test compound solution (0.5 mM; final concentration: 10 μM to compare directly to our previous work was added to each well and incubated at 0° C. or 37° C. After 10, 20 or 30 min, samples were chilled on ice and immediately sedimented (2,500 g for 15 min at 4° C.) and washed with Buffer S (0.5 mL, ×2). Resulting pellets were resuspended in 200 μL of 60% ACN containing 5 μM GABA-d6 and stored at −80° C. until analysis. Potassium-induced release assay used 500 μL aliquots of the synaptosome suspension transferred to pre-chilled microcentrifuge tubes. 2.5 μL of a test compound solution (20 mM; final concentration: 100 μM) in Buffer KRP was added to each tube and incubated for 15 min at 37° C., briefly chilled on ice, and then immediately sedimented (8,000 g for 4 min at 4° C.) and washed with Buffer KRP, followed by centrifugation, twice. The resulting pellets were resuspended in 500 μL of Buffer KRP or Buffer K-KRP and incubated for 5, 10 or 15 min at 37° C., sedimented (8,000 g for 4 min at 4° C.), and washed with Buffer KRP. Resulting pellets were resuspended in 400 μL of 60% ACN containing 2.5 μM GABA-d6 as internal standard and stored at −80° C. until analysis.
# [4] = test system: mouse cerebral synaptosomes; assay: Potassium-induced neurotransmitter release assay; assay type: cell-based; details: for synaptosome total GABA concentration following preincubation: 100 μM preincubation 15 min 37° C., vehicle 9.5±0.2; for reduction of synaptosome 4APA concentration by K+-induced membrane depolarization: 40 mM K+ vs 5 mM K+, 15 min; for endogenous GABA displaced in synaptosomes: once incorporated into synaptosomes
# Method: To each tube, 2.5 μL of a test compound solution (final concentration 100 μM) in Buffer KRP or Buffer KRP alone were added. Samples were incubated for 15 min at 37° C., briefly chilled on ice, and then immediately centrifuged and washed twice with Buffer KRP. The resulting pellets were then resuspended in either Buffer KRP (500 μL) or Buffer K-KRP (500 μL). Samples were immediately centrifuged or incubated for 5, 10 or 15 min at 37° C., then centrifuged and washed with Buffer KRP. Resulting pellets were resuspended in 400 μL of 60% ACN containing 2.5 μM Glu-d5 and 2.5 μM Gln-d5 as internal standards.
# as §1
# C57Bl/6 mice = assay type: in vivo; details: for mortality after single dose: mouse, in vivo; for distance moved in the novel cage: single 100, 300, or 900 mg/kg IP, dose- and time-dependent
# Method: Dosing: (R)-2MeGlu (30, 100, 300, or 900 mg/kg), (S)-2MeGlu (30, 100, 300, or 900 mg/kg), rac-2MeGln (30, 100, 300, or 900 mg/kg) and vehicle (PBS) were administered at 10 ml/kg IP dosing volume. Three mice were dosed once with the assigned drug (100, 300, or 900 mg/kg) or vehicle and immediately placed in a new cage for novel cage observation. Subsequently, six mice were dosed once with the assigned drug (30 or 100 mg/kg) or vehicle and tested by SHIRPA, activity chamber, and then hot plate tests.
# The mouse was dosed and immediately placed in the center of a clean, Innovive disposable rat cage with bedding (dimensions: 17″L×13.4″W×7.8″H) and allowed to move freely while being tracked automatically. Mice were monitored with Ethovision XT tracking software for the distance moved and average velocity during the 60-minute trial. They were returned to their home cage after the test. A new cage was used for each mouse.
# Exploratory behavioral tests were performed exactly as previously described by us using 2-month-old C57Bl/6 male mice, Example 1. First, we assessed safety and tolerability of acute exposure to 4APA enantiomers in 22 mice by novel cage observation at 100, 300, or 900 mg/kg IP compared to vehicle (PBS) IP (n=3 or 4 mice per group without sample calculation, based on our previous study. Next, we evaluated 24 drug naïve mice with a 23-measure battery of neurologic dysfunction in mice (SHIRPA) (Rogers et al., 2001), automated activity chamber assessment, and hot plate latency acutely following 30 or 100 mg/kg IP compared to vehicle IP (n=4 or 5 mice per group). No exclusion criteria were predetermined and no randomization was performed to allocate subjects in the study.
# Line 61 mice = assay: Transgenic α-synuclein mouse model, tapered beam test; assay type: in vivo
# Description: Line 61 mice overexpress human α-synuclein under control of the mouse Thy-1 promoter. The transgene is X-linked so females have variable transgene expression; for this reason, we focused on male mice. […] Categorical data from the tapered beam task were unblinded and analyzed by X square test (P<0.005).
# human glutaminase GLS1 = biological target: T1, human glutaminase GLS1 (Homo sapiens, UniProt O94925); assay: Catalysis of 2MeGln hydrolysis by GLS1 glutaminase; assay type: biochemical; details: human GLS1
# T1 construct: purchased Sigma SRP0516
# T1 sequence (O94925 55-669): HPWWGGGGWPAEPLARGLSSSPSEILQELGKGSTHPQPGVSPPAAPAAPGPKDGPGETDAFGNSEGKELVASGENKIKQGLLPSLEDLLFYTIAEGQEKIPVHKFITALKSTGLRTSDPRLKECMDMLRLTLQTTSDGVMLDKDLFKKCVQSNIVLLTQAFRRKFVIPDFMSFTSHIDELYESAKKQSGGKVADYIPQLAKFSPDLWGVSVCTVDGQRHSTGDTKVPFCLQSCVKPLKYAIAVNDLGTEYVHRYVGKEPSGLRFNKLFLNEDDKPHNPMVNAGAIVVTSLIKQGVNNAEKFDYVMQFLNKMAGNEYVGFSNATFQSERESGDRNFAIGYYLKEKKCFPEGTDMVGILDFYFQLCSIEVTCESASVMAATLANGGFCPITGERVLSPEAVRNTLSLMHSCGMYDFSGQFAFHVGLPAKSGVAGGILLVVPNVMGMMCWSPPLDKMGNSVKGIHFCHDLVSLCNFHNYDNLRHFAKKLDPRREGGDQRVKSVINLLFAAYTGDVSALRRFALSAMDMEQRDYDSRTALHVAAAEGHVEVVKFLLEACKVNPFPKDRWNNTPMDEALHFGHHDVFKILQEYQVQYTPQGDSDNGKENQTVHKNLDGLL
# Method: The procedure was adapted from an existing protocol. To a reaction mixture in a 1.5 mL microcentrifuge tube containing 10 mM rac-2MeGln or L-Gln-^13C2 in 100 mM phosphate pH 7.4 buffer made in 20% atom ^18O water, recombinant GLS1 (final concentration: 5 ng/mL) was added. The tubes were incubated in a preheated thermomixer at 37° C. and periodically shaken at 600 rpm (30 s on, 30 s off). 5 μL aliquots were collected in triplicate every 5 min and immediately diluted with 195 μL of cold 60% ACN containing 10 μM Glu-d5 and Gln-d5 as internal standards in a 96 well plate. After collecting all samples, the plate was shaken at 1000 rpm for 5 min at room temperature, and then stored at −80° C. Before analysis the plate was thawed and 10 μL aliquots of the extracted reaction mixtures were diluted with 190 μL of 90% acetonitrile.
# The quantification of the newly formed 2MeGlu in the presence of the preexisting trace amounts was performed in the following way. Peak area ratio of Glu-^13C2 to Glu-^13C2^18O was calculated in all samples containing Glu-^13C2. The mean ratio value was then applied to calculate the hypothetical peak area of the newly formed 2MeGlu based on the directly measured 2MeGlu-^18O peak area. The ratio of the newly formed 2MeGlu peak area and the total 2MeGlu peak area was applied to calculate the concentration of the newly formed 2MeGlu from the total 2MeGlu concentration determined directly using the calibration curve.
Compound,"synaptosome concentration, % of (R)-4APA ([3]; 10 μM, 30 min at 37° C.) [%]",synaptosome total GABA concentration following preincubation [4] [nmol/mg protein],reduction of synaptosome 4APA concentration by K+-induced membrane depolarization [4],endogenous GABA displaced in synaptosomes [4],mortality after single dose (C57Bl/6 mice),distance moved in the novel cage (C57Bl/6 mice),also measured
"CC(N)(CCC(=O)O)C(=O)O (racemic) [rac-2MeGlu, rac-2-Methylglutamic acid]",–,–,–,–,–,–,"half-life at 100 μM [1]: 21 min; reduction of neurodegeneration ([2]; 50 μM compound, lower dose of KA (2 μM)): approximately 50%; neuroprotection at the higher dose of KA ([2]; 5 or 50 μM compound, 5 μM KA): Neither dose of 2MeGlu or 2MeGln was neuroprotective"
"CC(N)CCC(=O)O (racemic) [rac-4APA, (rac)-4-Aminopentanoic acid]",78.5±3.8,4.4±0.4,62.2±8.6%,about 55%,–,–,"transport into synaptosomes ([3]; 10 μM substrate, 37° C.): transported into synaptosomes; synaptosome Glu concentration ([4]; preincubation with compound): not significantly changed; potassium-induced release from synaptosomes ([4]; preloaded with 100 μM for 15 min at 37° C., high-potassium depolarization): high potassium concentration-dependent release; neuroprotection ([2]; 5 or 50 μM compound): not neuroprotective"
"C[C@@H](N)CCC(=O)O [(R)-4APA, (R)-4-aminopentanoic acid]",–,3.8±0.5,55.3±6.8%,about 55%,no mouse died,significantly decreased,"synaptosome concentration of 4APA ([3]; 10 μM, 30 min at 37° C.): 9.3±0.6 nmol/mg protein; synaptosome uptake, faster than (S)-4APA ([3]; mouse synaptosomes): 4- to 5 fold; time post injection until not significantly different from vehicle, novel cage (C57Bl/6 mice; 300 mg/kg IP): 13 min; time post injection until not significantly different from vehicle, novel cage (C57Bl/6 mice; 900 mg/kg IP): 42 min; body weight or deaths (Line 61 mice; 5 or 50 mg/kg/d IP, seven days): no change in body weight or deaths; motor function, tapered beam (Line 61 mice; 7 days IP, high dose (50 mg/kg/d) S-2MeGlu, either dose (5 or 50 mg/kg/d) R-4APA): improved motor function similar to WT mice; α-synuclein accumulation in brain by immunohistochemistry vs vehicle (Line 61 mice; Line 61 mice): no significant change"
"C[C@](N)(CCC(N)=O)C(=O)O [(S)-2MeGln, (S)-2-methylglutamine]",–,–,–,–,–,–,substrate of GLS1 (hydrolysis to 2MeGlu) (human glutaminase GLS1): substrates
"C[C@H](N)CCC(=O)O [(S)-4APA, (S)-4-aminopentanoic acid]",22.8±0.8,6.0±0.6,did not significantly reduce,approximately 30%,no mouse died,significantly decreased,–
